The values below come from ChEMBL document CHEMBL2321780, “Fluorinated quinazolinones as potential radiotracers for imaging kinesin spindle protein expression” (2013).

The target in assay [1] is T1, Kinesin-like protein KIFC3 (Homo sapiens) (UniProt Q9BVG8).
T1 sequence (whole entry): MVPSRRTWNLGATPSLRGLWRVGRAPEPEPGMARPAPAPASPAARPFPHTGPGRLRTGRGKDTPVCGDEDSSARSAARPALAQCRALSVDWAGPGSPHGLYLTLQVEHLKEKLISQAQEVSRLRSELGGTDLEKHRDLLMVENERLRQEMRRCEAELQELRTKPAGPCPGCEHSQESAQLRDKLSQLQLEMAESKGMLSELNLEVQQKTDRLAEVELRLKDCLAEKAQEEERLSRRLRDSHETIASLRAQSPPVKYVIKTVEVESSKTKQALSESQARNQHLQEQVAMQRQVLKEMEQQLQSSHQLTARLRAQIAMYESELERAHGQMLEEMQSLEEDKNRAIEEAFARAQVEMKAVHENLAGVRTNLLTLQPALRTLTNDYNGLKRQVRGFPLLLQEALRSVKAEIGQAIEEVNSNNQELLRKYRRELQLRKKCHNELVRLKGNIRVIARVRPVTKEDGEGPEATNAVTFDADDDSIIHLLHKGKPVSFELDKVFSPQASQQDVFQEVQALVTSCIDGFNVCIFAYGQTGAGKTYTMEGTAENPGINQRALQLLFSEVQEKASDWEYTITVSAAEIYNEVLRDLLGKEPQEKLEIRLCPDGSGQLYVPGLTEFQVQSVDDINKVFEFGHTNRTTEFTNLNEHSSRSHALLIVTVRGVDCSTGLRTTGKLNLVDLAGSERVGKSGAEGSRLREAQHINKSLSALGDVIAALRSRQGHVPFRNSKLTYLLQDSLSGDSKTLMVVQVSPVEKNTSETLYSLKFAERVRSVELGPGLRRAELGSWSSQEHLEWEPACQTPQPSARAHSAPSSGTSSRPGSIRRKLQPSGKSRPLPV
The assay can be described thus: Inhibition of KIFC3 (unknown origin)-mediated ATP hydrolysis assessed as residual activity at 1 uM after 10 to 20 mins by spectrophotometric analysis.

In another assay the test system is SK-OV-3. The assay can be described thus: Nonspecific cytotoxicity against human SKOV3 cells after 44 hrs by MTT assay. The assay is classed as functional. The settings on record: SK-OV-3, 44 h.
Another assay concerns DU-145. The assay is described as follows: Nonspecific cytotoxicity against human DU145 cells after 44 hrs by MTT assay. The settings on record: DU-145, 44 h. The assay is classed as functional.
The test system of another assay is PC-3. The assay can be described thus: Nonspecific cytotoxicity against human PC3 cells after 44 hrs by MTT assay. The assay is classed as functional. The settings on record: PC-3, 44 h.
The target of assay [2] is Centromere-associated protein E (Homo sapiens) (UniProt Q02224). The assay can be described thus: Inhibition of CENP-E (unknown origin)-mediated ATP hydrolysis assessed as residual activity at 1 uM after 10 to 20 mins by spectrophotometric analysis.
Sequence of Centromere-associated protein E (Homo sapiens) (Q02224 whole entry): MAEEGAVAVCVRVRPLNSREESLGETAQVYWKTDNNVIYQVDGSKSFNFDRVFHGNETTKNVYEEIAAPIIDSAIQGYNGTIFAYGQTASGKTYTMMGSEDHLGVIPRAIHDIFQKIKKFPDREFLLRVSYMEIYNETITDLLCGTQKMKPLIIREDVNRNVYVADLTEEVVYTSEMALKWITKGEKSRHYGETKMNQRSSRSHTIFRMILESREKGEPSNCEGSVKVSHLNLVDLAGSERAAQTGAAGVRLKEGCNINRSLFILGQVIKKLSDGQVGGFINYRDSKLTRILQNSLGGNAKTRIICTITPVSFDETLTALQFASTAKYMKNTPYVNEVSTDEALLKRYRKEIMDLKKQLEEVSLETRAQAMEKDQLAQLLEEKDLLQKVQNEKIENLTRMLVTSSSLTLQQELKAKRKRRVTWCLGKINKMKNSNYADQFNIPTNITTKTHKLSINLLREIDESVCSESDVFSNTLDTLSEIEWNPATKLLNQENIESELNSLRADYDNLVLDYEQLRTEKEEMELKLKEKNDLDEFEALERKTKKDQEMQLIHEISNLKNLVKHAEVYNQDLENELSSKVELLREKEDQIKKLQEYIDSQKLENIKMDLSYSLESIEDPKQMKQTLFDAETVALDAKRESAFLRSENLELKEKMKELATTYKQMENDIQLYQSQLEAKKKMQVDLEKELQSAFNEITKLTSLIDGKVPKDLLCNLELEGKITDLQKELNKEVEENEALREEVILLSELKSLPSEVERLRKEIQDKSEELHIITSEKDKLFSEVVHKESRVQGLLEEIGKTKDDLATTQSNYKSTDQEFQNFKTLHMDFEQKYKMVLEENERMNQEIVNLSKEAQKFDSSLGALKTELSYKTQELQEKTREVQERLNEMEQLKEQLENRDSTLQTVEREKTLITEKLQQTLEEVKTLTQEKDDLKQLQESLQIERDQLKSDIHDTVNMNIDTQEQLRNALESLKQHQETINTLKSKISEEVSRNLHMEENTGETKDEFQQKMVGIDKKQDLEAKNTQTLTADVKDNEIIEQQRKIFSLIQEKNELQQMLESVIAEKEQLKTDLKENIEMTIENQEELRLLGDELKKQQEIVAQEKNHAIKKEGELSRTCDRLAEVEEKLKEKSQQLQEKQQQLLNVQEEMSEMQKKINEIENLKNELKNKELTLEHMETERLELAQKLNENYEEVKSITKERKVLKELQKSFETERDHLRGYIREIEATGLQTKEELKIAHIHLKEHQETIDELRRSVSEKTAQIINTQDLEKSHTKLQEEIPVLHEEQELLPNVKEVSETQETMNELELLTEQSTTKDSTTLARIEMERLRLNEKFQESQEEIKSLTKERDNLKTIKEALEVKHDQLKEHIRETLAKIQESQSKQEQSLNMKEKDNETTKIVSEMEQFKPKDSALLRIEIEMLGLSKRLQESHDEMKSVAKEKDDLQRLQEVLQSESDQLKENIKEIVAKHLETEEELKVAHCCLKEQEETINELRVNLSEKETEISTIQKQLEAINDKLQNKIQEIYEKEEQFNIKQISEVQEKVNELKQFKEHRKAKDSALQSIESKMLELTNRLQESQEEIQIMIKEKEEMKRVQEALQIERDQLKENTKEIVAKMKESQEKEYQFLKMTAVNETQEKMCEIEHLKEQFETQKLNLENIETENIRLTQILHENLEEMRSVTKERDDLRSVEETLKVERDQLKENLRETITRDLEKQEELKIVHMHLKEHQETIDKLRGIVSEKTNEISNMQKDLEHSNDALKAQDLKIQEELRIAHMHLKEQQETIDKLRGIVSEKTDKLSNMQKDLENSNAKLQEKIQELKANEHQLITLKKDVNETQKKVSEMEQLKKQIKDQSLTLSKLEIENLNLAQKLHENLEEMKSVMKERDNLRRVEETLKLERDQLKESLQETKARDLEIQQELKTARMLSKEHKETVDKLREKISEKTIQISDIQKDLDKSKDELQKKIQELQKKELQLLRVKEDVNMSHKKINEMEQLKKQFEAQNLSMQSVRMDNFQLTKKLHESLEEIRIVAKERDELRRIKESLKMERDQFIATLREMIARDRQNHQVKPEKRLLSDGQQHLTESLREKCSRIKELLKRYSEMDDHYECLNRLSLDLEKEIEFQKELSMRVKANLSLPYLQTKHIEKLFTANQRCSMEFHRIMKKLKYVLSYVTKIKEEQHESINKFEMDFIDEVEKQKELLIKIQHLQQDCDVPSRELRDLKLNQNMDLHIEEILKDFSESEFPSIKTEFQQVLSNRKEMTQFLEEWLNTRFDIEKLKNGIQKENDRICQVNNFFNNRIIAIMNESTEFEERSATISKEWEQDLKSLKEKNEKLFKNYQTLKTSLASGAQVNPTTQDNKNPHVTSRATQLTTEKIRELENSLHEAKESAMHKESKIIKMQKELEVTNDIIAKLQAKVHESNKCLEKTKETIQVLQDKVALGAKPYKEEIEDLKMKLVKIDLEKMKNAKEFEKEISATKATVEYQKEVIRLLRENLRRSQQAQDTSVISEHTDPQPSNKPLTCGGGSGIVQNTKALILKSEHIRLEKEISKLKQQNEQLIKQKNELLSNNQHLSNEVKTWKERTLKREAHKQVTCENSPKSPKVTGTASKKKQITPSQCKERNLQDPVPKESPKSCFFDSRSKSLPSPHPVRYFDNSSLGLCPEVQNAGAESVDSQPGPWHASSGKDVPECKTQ
For assay [3], the target named is T2, Kinesin-like protein KIF2C (Homo sapiens) (UniProt Q99661).
T2 sequence (whole entry): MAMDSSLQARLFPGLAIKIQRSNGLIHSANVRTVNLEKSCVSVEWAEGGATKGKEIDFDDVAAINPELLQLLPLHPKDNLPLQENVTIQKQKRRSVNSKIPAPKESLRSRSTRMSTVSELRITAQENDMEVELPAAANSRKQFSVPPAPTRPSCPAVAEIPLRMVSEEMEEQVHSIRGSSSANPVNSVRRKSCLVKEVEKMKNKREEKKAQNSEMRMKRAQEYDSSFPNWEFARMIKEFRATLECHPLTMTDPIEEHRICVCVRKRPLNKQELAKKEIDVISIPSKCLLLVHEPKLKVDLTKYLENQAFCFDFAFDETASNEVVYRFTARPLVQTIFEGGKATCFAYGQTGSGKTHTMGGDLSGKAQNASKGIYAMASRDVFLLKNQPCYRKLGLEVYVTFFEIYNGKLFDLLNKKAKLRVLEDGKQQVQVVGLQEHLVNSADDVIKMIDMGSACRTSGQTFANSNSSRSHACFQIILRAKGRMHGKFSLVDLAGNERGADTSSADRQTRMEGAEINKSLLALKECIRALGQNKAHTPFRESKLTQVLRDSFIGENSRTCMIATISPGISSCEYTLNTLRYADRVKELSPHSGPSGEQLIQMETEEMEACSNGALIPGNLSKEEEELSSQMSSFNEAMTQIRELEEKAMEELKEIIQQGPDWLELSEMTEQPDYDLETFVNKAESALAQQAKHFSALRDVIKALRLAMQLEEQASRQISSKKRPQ
The assay can be described thus: Inhibition of MCAK (unknown origin)-mediated ATP hydrolysis assessed as residual activity at 1 uM after 10 to 20 mins by spectrophotometric analysis.

Assay [4] deals with T3, Kinesin-like protein KIF11 (Homo sapiens) (UniProt P52732).
T3 sequence (whole entry): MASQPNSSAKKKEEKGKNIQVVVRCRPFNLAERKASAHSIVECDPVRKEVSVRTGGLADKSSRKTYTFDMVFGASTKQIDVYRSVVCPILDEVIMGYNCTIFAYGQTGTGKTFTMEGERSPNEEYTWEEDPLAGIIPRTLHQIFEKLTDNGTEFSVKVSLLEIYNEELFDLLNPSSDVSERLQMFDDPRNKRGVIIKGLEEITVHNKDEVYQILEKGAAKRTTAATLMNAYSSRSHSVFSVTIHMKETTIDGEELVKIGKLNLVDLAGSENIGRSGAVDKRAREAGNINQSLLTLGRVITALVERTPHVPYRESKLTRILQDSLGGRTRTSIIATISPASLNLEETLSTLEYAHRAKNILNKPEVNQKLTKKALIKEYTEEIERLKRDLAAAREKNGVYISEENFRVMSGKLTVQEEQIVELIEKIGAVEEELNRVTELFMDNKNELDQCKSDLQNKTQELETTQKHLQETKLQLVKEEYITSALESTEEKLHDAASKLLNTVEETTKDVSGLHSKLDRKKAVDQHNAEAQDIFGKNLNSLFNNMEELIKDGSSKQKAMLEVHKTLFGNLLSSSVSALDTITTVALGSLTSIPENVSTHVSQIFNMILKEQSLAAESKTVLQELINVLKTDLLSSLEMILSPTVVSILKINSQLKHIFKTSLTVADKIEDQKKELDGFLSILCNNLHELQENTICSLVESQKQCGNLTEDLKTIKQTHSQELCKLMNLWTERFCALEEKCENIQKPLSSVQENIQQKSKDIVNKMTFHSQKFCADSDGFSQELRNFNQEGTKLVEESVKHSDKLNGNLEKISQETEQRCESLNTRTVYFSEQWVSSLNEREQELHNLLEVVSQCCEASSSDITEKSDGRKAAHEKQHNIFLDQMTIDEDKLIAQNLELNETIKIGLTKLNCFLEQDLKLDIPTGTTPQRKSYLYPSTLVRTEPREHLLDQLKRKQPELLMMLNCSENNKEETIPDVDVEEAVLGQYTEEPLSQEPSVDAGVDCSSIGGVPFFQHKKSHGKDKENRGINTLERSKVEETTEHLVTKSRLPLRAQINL
The assay is described as follows: Inhibition of KSP (unknown origin)-mediated ATP hydrolysis assessed as residual activity at 1 uM after 10 to 20 mins by spectrophotometric analysis.

As for `CC(C)[C@@H](c1nc2cc(Cl)ccc2c(=O)n1Cc1ccccc1)N(CCCN)C(=O)c1ccc(F)cc1`, the Activity in assay [1] is 98.7%; in assay [2], 97.4%; in assay [3], 98.9%; in assay [4], 96.1%. The 50% growth inhibitory concentration (GI50) with SK-OV-3 worked out at 500 nM; with DU-145, 350 nM; in the assay on PC-3, 1300 nM.

Regarding `CC(C)[C@@H](c1nc2cc(Cl)ccc2c(=O)n1Cc1ccccc1)N(CCCN)C(=O)c1cccc(F)c1`, the Activity was found to be 98.9% in assay [1], 100% in assay [2], 98.6% in assay [3] and 95.5% in assay [4]. The figures for the GI50 in the assay with SK-OV-3, with DU-145 and in the assay with PC-3 were 1100 nM, 520 nM and 1800 nM, respectively.

Regarding `CC(C)[C@H](c1nc2cc(Cl)ccc2c(=O)n1Cc1ccccc1)N(CCCN)C(=O)c1ccccc1F`, the Activity is 99.4% in assay [1], 99.1% in assay [2], 98.7% in assay [3] and 7.5% in assay [4]. Also, the results for the GI50 in the assay with SK-OV-3, in the assay with DU-145 and with PC-3 were 5350 nM, 5600 nM and 4600 nM, respectively.

For `Cc1ccc(C(=O)N(CCCN)[C@H](c2nc3cc(Cl)ccc3c(=O)n2Cc2ccccc2)C(C)C)cc1`, the Activity in assay [1] was 97.9%; in assay [2] it was 99.1%; in assay [3], 99.2%; in assay [4], 99.4%.

As to `Cc1ccc(C(=O)N(CCCN)[C@@H](c2nc3cc(Cl)ccc3c(=O)n2Cc2ccccc2)C(C)C)cc1` [ISPINESIB], the Activity in assay [1] is 97.3%; in assay [2], 98%; in assay [3], 96.7%; in assay [4], 8.8%.

For the compound `CC(C)[C@H](c1nc2cc(Cl)ccc2c(=O)n1Cc1ccccc1)N(CCCN)C(=O)c1ccc(F)cc1`, the Activity in assay [1] worked out at 101%; in assay [2], 99.8%; in assay [3], 99.2%; in assay [4] it was 2.7%. The GI50 in the assay with SK-OV-3 was determined as 15400 nM; with DU-145 it was 2200 nM; in the assay with PC-3 it was 5100 nM.

As to `CC(C)[C@@H](c1nc2cc(Cl)ccc2c(=O)n1Cc1ccccc1)N(CCCN)C(=O)c1ccccc1F`, the Activity in assay [1] was determined as 98.8%; in assay [2] it was 97.9%; in assay [3], 98.2%; in assay [4], 95.9%. The GI50 with SK-OV-3 came out at 850 nM; in the assay with DU-145, 720 nM; with PC-3, 160 nM.

For the compound `CC(C)C(c1nc2cc(Cl)ccc2c(=O)n1Cc1ccccc1)N(CCCN)C(=O)c1cccc(F)c1` (racemic), the Activity in assay [1] was 99.4%; in assay [2] it was 97.4%; in assay [3], 96.4%; in assay [4], 10.1%. The results for the concentration for 50% growth inhibition (GI50) with SK-OV-3, with DU-145 and with PC-3 were 5700 nM, 3300 nM and 7600 nM, respectively.
